Assay results as given in patent US12281123B2, “Benzoxazinone compounds as KLK5/7 dual inhibitors” (MOLECULAR SKIN THERAPEUTICS, INC., priority 2019, dated 2025).
Several values for one entry are separate records, joined by “and”; a condition that tells them apart may be missing. Equal entries are not always repeated.

Experiments:
Assay type in all cases: biochemical
[1] = target: T1, Trypsin (UniProt P00760); experiment: Chromogenic assay, trypsin; conditions: Trypsin 0.1 nM; S-2288 500 μM; highest conc. of 1.001 50 μM
T1 sequence (P00760 1-246): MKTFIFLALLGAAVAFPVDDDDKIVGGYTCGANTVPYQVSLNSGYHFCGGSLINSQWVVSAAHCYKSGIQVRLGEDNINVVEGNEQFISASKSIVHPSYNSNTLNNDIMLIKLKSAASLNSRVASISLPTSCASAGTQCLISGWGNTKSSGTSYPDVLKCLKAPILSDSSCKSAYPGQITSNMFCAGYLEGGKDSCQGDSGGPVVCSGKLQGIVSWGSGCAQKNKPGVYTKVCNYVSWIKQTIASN
Text: Human Kallikrein Proteins: Recombinant human KLK5 expressed in HEK293 was obtained from SpeedBio (Gaithersburg, MD). Recombinant proenzyme KLK-7 and recombinant proenzyme KLK-14 both expressed in mouse myeloma cells were from R&D Biosystems (Minneapolis, MN). Plasmin and thrombin were from Haematologic Technologies (Essex Junction, VT). Trypsin and Chymotrypsin were bought from Worthington Biochemical Corporation (Lakewood, NJ) and plasma kallikrein was from Prospec (East Brunswick, NJ). Neutrophil Elastase was obtained from Innovative Research (Peary Court, MI). Bovine recombinant enterokinase expressed in E. coli was bought from Sigma (St. Louis, MI). Matriptase expressed in E. coli was obtained from Enzo Life Sciences (Farmingdale, NY). The control inhibitors Nafamostat mesylate was from Sigma (St. Louis, MI) and (2-(2-fluorophenyl)-5,6,7,8-tetrahydro-4H-benzo[4,5]thieno[2,3-d][1,3]oxazin-4-one was from Interbioscreen (Moskow, Russia). […]
Assays: All assays were performed in 384 well polystyrene plates coated overnight with 0.1% Tween 20 at 4° C. […] The assays were monitored at 37° C. in a multi well plate reader at a wavelength of 405 nm (Molecular Devices, San Jose, CA) for 1 h. […]
(§1) Data analysis: The progress curves of substrate hydrolysis were analyzed by linear regression of the final 20 min of the reaction. […]

[2] = target: T2, Factor Xa (Homo sapiens, UniProt P00742); experiment: Chromogenic assay, Factor Xa; conditions: Factor Xa 0.5 nM; S-2288 500 μM; highest conc. of 1.001 20 μM
T2 construct: purchased Haematologic Technologies
T2 sequence (P00742 235-488 limits assumed): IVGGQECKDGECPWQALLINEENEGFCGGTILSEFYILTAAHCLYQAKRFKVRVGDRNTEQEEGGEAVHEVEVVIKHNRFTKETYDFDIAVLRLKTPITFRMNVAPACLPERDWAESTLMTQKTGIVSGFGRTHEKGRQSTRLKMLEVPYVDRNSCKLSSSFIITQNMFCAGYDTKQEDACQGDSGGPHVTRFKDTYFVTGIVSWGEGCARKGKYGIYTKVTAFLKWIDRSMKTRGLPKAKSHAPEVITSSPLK
T2 sequence (P00742 41-179 partner limits assumed): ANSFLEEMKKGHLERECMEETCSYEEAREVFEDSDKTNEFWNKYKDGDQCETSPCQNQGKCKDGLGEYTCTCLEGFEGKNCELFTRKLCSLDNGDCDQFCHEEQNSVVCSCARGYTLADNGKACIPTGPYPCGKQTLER
Procedure: Assays: All assays were performed in 384 well polystyrene plates coated overnight with 0.1% Tween 20 at 4° C. The plates were then washed twice with 100 μL water and dried. For the determination of IC50 values, the inhibitors were diluted in serial dilutions of 1:3 intervals into pure DMSO at 50 fold of the intended final concentrations in the assays. Usually eight inhibitor dilutions and one DMSO control were prepared. The substrates were diluted into water at 2.2-fold the final concentration in the assay mixture. The wells of the plate were filled with 50 μL of the enzyme diluted in 2× assay buffer (100 mM Tris, 200 mM NaCl, 0.2% PEG, 0.01% Tween, 2 mM EDTA, pH 8.0) at twofold the intended concentration. Then 5 μL DMSO, 2.2 μL inhibitor and 45 μL substrate were added to start the reaction. The assays were monitored at 37° C. in a multi well plate reader at a wavelength of 405 nm (Molecular Devices, San Jose, CA) for 1 h. The tool inhibitor, nafamostat, was used as a control for trypsin, thrombin, KLK-5 and KLK-14 at 10 μM maximal concentration and (2-(2-fluorophenyl)-5,6,7,8-tetrahydro-4H-benzo[4,5]thieno[2,3-d][1,3]oxazin-4-one for KLK-7 at 5 μM.
Data analysis: The progress curves of substrate hydrolysis were analyzed by linear regression of the final 20 min of the reaction. Fit of the dose response of the resulting rates to the following equation yielded the IC50: […]

[3] = target: T3, KLK14 (Homo sapiens, UniProt Q9P0G3); experiment: Chromogenic assay, KLK14; conditions: S-2288 500 μM, highest conc. of 1.001 50 μM
T3 construct: purchased R&D Biosystems (Minneapolis, MN) / R&Dsystems; host or cells: mouse myeloma cells
T3 sequence (Q9P0G3 25-251): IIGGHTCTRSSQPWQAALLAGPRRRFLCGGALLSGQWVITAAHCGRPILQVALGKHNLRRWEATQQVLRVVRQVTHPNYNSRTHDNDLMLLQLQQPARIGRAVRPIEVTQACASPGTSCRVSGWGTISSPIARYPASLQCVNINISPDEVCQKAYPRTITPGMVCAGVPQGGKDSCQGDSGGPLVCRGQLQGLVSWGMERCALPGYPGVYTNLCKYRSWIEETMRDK
Text: Human Kallikrein Proteins: Recombinant human KLK5 expressed in HEK293 was obtained from SpeedBio (Gaithersburg, MD). Recombinant proenzyme KLK-7 and recombinant proenzyme KLK-14 both expressed in mouse myeloma cells were from R&D Biosystems (Minneapolis, MN). Plasmin and thrombin were from Haematologic Technologies (Essex Junction, VT). Trypsin and Chymotrypsin were bought from Worthington Biochemical Corporation (Lakewood, NJ) and plasma kallikrein was from Prospec (East Brunswick, NJ). Neutrophil Elastase was obtained from Innovative Research (Peary Court, MI). Bovine recombinant enterokinase expressed in E. coli was bought from Sigma (St. Louis, MI). Matriptase expressed in E. coli was obtained from Enzo Life Sciences (Farmingdale, NY). The control inhibitors Nafamostat mesylate was from Sigma (St. Louis, MI) and (2-(2-fluorophenyl)-5,6,7,8-tetrahydro-4H-benzo[4,5]thieno[2,3-d][1,3]oxazin-4-one was from Interbioscreen (Moskow, Russia).
Substrates: S-2288 (D-Ile-Pro-Arg-pNA), CS-PSA (MeO-Suc-Arg-Pro-Tyr-pNA), S-2266 (H-D-Val-Leu-Arg-pNA) and S-2288 (H-D-Ile-Pro-Arg-pNA) were bought from Diapharma (West Chester, OH). MeOSuccAla-Ala-Pro-Val-pNA was purchased from Sigma (St Louis, MI). The substrates were dissolved in water at 10 mM and were frozen in aliquots at −20° C.
Activation of KLK-7 and KLK-14: 150 μL 8 μM solution of the proenzymes of KLK-7 or KLK-14 in 50 mM Tris, 10 mM CaCl2, 150 mM NaCl, 0.05% (w/v) Brij-35, pH 7.5 were mixed with 150 μL 10 μg/mL bovine enterokinase in the same buffer and incubated for 2 h for KLK-7 and 1 h for KLK-14 at 37° C. After the incubation period, activation was stopped by addition of 6 μL 0.5 M EDTA pH 8.0.
Assays: All assays were performed in 384 well polystyrene plates coated overnight with 0.1% Tween 20 at 4° C. The plates were then washed twice with 100 μL water and dried. […] The assays were monitored at 37° C. in a multi well plate reader at a wavelength of 405 nm (Molecular Devices, San Jose, CA) for 1 h. […]
as §1

IC50 [1] | IC50 [2] | IC50 ([3]; KLK14 1 nM) [µM] | IC50 ([3]; KLK14 5 nM) [µM] | Structure (SMILES) | IC50 (μM), Trypsin [1] | IC50 (μM), Factor Xa [2] | IC50 (μM), KLK14 ([3]; KLK14 5 nM)
1.66 µM and 1.36 µM and 2.2 µM | 3.22 µM and 10.4 µM and 3.94 µM | 0.442 | 0.633 | CS(=O)(=O)c1cc(CO)ccc1-c1nc2cc3c(cc2c(=O)o1)OCCO3 [Compound 1.001, 2-(4-(Hydroxymethyl)-2-(methylsulfonyl)phenyl)-7,8-dihydro-4H-[1,4]dioxino[2′,3′:4,5]benzo[1,2-d][1,3]oxazin-4-one] |  |  | 
 |  |  |  | CS(=O)(=O)c1cc(CO)ccc1C(=O)Nc1cc2c(cc1C(=O)O)OCCO2 [Compound 408, reference compound] | No inhibition | No inhibition | No inhibition
